Laboratory results published in ChEMBL document CHEMBL3885881, “DrugMatrix”.

Species: Rattus norvegicus
Experiment: DrugMatrix - Regimen: Daily Repeat
Format: toxicity, organism-based, Sprague-Dawley
Set-up: regimen Daily Repeat, gender Male, age 6-8 weeks
Conditions: in vivo, po, route oral GAVAGE, vehicle .5 % CMC; for ABSOLUTE BASOPHIL / ABSOLUTE EOSINOPHIL / ABSOLUTE LYMPHOCYTE / ABSOLUTE MONOCYTE / ABSOLUTE SEGMENTED NEUTROPHIL / BASOPHIL / EOSINOPHIL / ERYTHROCYTE COUNT / HEMATOCRIT / HEMOGLOBIN / LEUKOCYTE COUNT / LYMPHOCYTE / MEAN CORPUSCULAR HEMOGLOBIN / MEAN CORPUSCULAR HEMOGLOBIN CONCENTRATION / MEAN CORPUSCULAR VOLUME / MONOCYTE / NEUTROPHIL / NUCLEATED RED BLOOD CELLS / PLATELET COUNT: tissue Blood; for ALANINE AMINOTRANSFERASE / ALBUMIN / ALKALINE PHOSPHATASE / ASPARTATE AMINOTRANSFERASE / BLOOD UREA NITROGEN / CARBON DIOXIDE / CHLORIDE / CHOLESTEROL / CREATINE PHOSPHOKINASE / CREATININE / GLUCOSE / LACTATE DEHYDROGENASE / LIPASE / PHOSPHORUS / POTASSIUM / SODIUM / TOTAL BILIRUBIN / TOTAL PROTEIN / URIC ACID: tissue Plasma
[1] = 0 mg/kg, 72 h, dose level Control, time 3 day
[2] = 0 mg/kg, 120 h, dose level Control, time 5 day
[3] = 60 mg/kg, 72 h, dose level Low, time 3 day
[4] = 60 mg/kg, 120 h, dose level Low, time 5 day

## CC(C)[C@H]1CC[C@H](C(=O)N[C@H](Cc2ccccc2)C(=O)O)CC1 [NATEGLINIDE]
[1]
  ABSOLUTE BASOPHIL: 0 CELLS/uL
  ABSOLUTE EOSINOPHIL: 35.67 CELLS/uL
  ABSOLUTE LYMPHOCYTE: 9125.17 CELLS/uL
  ABSOLUTE MONOCYTE: 50.17 CELLS/uL
  ABSOLUTE SEGMENTED NEUTROPHIL: 722.33 CELLS/uL
  BASOPHIL: 0%
  EOSINOPHIL: 0.33%
  ERYTHROCYTE COUNT: 5.35 x10E6/uL
  HEMATOCRIT: 33.58%
  HEMOGLOBIN: 13.35 G/DL
  LEUKOCYTE COUNT: 9.93 x10E3/uL
  LYMPHOCYTE: 91.67%
  MEAN CORPUSCULAR HEMOGLOBIN: 25 pg
  MEAN CORPUSCULAR HEMOGLOBIN CONCENTRATION: 39.8 G/DL
  MEAN CORPUSCULAR VOLUME: 62.77 fL
  MONOCYTE: 0.67%
  NEUTROPHIL: 7.33%
  NUCLEATED RED BLOOD CELLS: 0 /100WBC
  PLATELET COUNT: 866.17 x10E3/uL
  ALANINE AMINOTRANSFERASE: 57.17 u/L
  ALBUMIN: 4.22 G/DL
  ALKALINE PHOSPHATASE: 391 u/L
  ASPARTATE AMINOTRANSFERASE: 95.17 u/L
  BLOOD UREA NITROGEN: 13.67 mg/dL
  CARBON DIOXIDE: 30 mmol/L
  CHLORIDE: 102.5 MEQ/L
  CHOLESTEROL: 72 mg/dL
  CREATINE PHOSPHOKINASE: 485.67 u/L
  CREATININE: 0.27 mg/dL
  GLUCOSE: 152 mg/dL
  LACTATE DEHYDROGENASE: 372.67 u/L
  LIPASE: 9.83 u/L
  PHOSPHORUS: 12.47 mg/dL
  POTASSIUM: 6.81 MEQ/L
  SODIUM: 144.1 MEQ/L
  TOTAL BILIRUBIN: 0.23 mg/dL
  TOTAL PROTEIN: 5.93 G/DL
  URIC ACID: 1.9 mg/dL
[2]
  ABSOLUTE BASOPHIL: 0 CELLS/uL
  ABSOLUTE EOSINOPHIL: 67.33 CELLS/uL
  ABSOLUTE LYMPHOCYTE: 11419.17 CELLS/uL
  ABSOLUTE MONOCYTE: 203.17 CELLS/uL
  ABSOLUTE SEGMENTED NEUTROPHIL: 1327 CELLS/uL
  BASOPHIL: 0%
  EOSINOPHIL: 0.5%
  ERYTHROCYTE COUNT: 5.65 x10E6/uL
  HEMATOCRIT: 35.3%
  HEMOGLOBIN: 13.98 G/DL
  LEUKOCYTE COUNT: 13.02 x10E3/uL
  LYMPHOCYTE: 88%
  MEAN CORPUSCULAR HEMOGLOBIN: 24.78 pg
  MEAN CORPUSCULAR HEMOGLOBIN CONCENTRATION: 39.63 G/DL
  MEAN CORPUSCULAR VOLUME: 62.58 fL
  MONOCYTE: 1.33%
  NEUTROPHIL: 10.17%
  NUCLEATED RED BLOOD CELLS: 0 /100WBC
  PLATELET COUNT: 1213.83 x10E3/uL
  ALANINE AMINOTRANSFERASE: 49.67 u/L
  ALBUMIN: 4.28 G/DL
  ALKALINE PHOSPHATASE: 362.33 u/L
  ASPARTATE AMINOTRANSFERASE: 99 u/L
  BLOOD UREA NITROGEN: 20.67 mg/dL
  CARBON DIOXIDE: 26.33 mmol/L
  CHLORIDE: 102 MEQ/L
  CHOLESTEROL: 63.83 mg/dL
  CREATINE PHOSPHOKINASE: 481.83 u/L
  CREATININE: 0.21 mg/dL
  GLUCOSE: 158 mg/dL
  LACTATE DEHYDROGENASE: 656.33 u/L
  LIPASE: 10.67 u/L
  PHOSPHORUS: 12.27 mg/dL
  POTASSIUM: 6.17 MEQ/L
  SODIUM: 143.35 MEQ/L
  TOTAL BILIRUBIN: 0.17 mg/dL
  TOTAL PROTEIN: 6.13 G/DL
  URIC ACID: 1.48 mg/dL
[3]
  ABSOLUTE BASOPHIL: 0 CELLS/uL
  ABSOLUTE EOSINOPHIL: 0 CELLS/uL
  ABSOLUTE LYMPHOCYTE: 9045.33 CELLS/uL
  ABSOLUTE MONOCYTE: 160.67 CELLS/uL
  ABSOLUTE SEGMENTED NEUTROPHIL: 994 CELLS/uL
  BASOPHIL: 0%
  EOSINOPHIL: 0%
  ERYTHROCYTE COUNT: 5.13 x10E6/uL
  HEMATOCRIT: 32.57%
  HEMOGLOBIN: 13.4 G/DL
  LEUKOCYTE COUNT: 10.2 x10E3/uL
  LYMPHOCYTE: 88.33%
  MEAN CORPUSCULAR HEMOGLOBIN: 26.2 pg
  MEAN CORPUSCULAR HEMOGLOBIN CONCENTRATION: 41.17 G/DL
  MEAN CORPUSCULAR VOLUME: 63.67 fL
  MONOCYTE: 1.67%
  NEUTROPHIL: 10%
  NUCLEATED RED BLOOD CELLS: 0 /100WBC
  PLATELET COUNT: 720 x10E3/uL
  ALANINE AMINOTRANSFERASE: 53.67 u/L
  ALBUMIN: 4.27 G/DL
  ALKALINE PHOSPHATASE: 449.67 u/L
  ASPARTATE AMINOTRANSFERASE: 94.67 u/L
  BLOOD UREA NITROGEN: 17 mg/dL
  CARBON DIOXIDE: 30.33 mmol/L
  CHLORIDE: 103.67 MEQ/L
  CHOLESTEROL: 73.67 mg/dL
  CREATINE PHOSPHOKINASE: 447.67 u/L
  CREATININE: 0.2 mg/dL
  GLUCOSE: 149 mg/dL
  LACTATE DEHYDROGENASE: 345.33 u/L
  LIPASE: 8.67 u/L
  PHOSPHORUS: 13 mg/dL
  POTASSIUM: 6.04 MEQ/L
  SODIUM: 145.07 MEQ/L
  TOTAL BILIRUBIN: 0.13 mg/dL
  TOTAL PROTEIN: 5.87 G/DL
  URIC ACID: 1.33 mg/dL
[4]
  ABSOLUTE BASOPHIL: 0 CELLS/uL
  ABSOLUTE EOSINOPHIL: 124 CELLS/uL
  ABSOLUTE LYMPHOCYTE: 13794 CELLS/uL
  ABSOLUTE MONOCYTE: 49 CELLS/uL
  ABSOLUTE SEGMENTED NEUTROPHIL: 933 CELLS/uL
  BASOPHIL: 0%
  EOSINOPHIL: 0.67%
  ERYTHROCYTE COUNT: 5.42 x10E6/uL
  HEMATOCRIT: 34.03%
  HEMOGLOBIN: 13.53 G/DL
  LEUKOCYTE COUNT: 14.9 x10E3/uL
  LYMPHOCYTE: 92.33%
  MEAN CORPUSCULAR HEMOGLOBIN: 25 pg
  MEAN CORPUSCULAR HEMOGLOBIN CONCENTRATION: 39.77 G/DL
  MEAN CORPUSCULAR VOLUME: 62.87 fL
  MONOCYTE: 0.33%
  NEUTROPHIL: 6.67%
  NUCLEATED RED BLOOD CELLS: 0 /100WBC
  PLATELET COUNT: 1175.33 x10E3/uL
  ALANINE AMINOTRANSFERASE: 57.67 u/L
  ALBUMIN: 4.2 G/DL
  ALKALINE PHOSPHATASE: 396.67 u/L
  ASPARTATE AMINOTRANSFERASE: 87 u/L
  BLOOD UREA NITROGEN: 20 mg/dL
  CARBON DIOXIDE: 25 mmol/L
  CHLORIDE: 104 MEQ/L
  CHOLESTEROL: 56 mg/dL
  CREATINE PHOSPHOKINASE: 315 u/L
  CREATININE: 0.27 mg/dL
  GLUCOSE: 169.67 mg/dL
  LACTATE DEHYDROGENASE: 303.33 u/L
  LIPASE: 10.67 u/L
  PHOSPHORUS: 12.97 mg/dL
  POTASSIUM: 5.61 MEQ/L
  SODIUM: 144.73 MEQ/L
  TOTAL BILIRUBIN: 0.23 mg/dL
  TOTAL PROTEIN: 5.93 G/DL
  URIC ACID: 1.37 mg/dL
